Measurements published in ChEMBL document CHEMBL1126754, “Hydroxyurea derivatives as hypoglycemic agents” (1993).

Experiments:
[1] = tested on: Mus musculus; experiment: In vivo ability to lower blood glucose in the ob/ob mouse model at a dose of 5 mg/kg; format: functional
[2] = tested on: Mus musculus; experiment: In vivo ability to lower blood glucose in the ob/ob mouse model at a dose of 25 mg/kg; format: functional
[3] = tested on: Mus musculus; experiment: In vivo ability to lower blood glucose in the ob/ob mouse model at a dose of 1 mg/kg; format: functional
[4] = tested on: 3T3-L1; experiment: Effect on GLUT 1 glucose transporter expression in 3T3-L1 adipocytes at dose of 3 uM; format: functional, Mus musculus
[5] = tested on: Mus musculus; experiment: In vivo ability to lower blood glucose in the ob/ob mouse model at a dose of 10 mg/kg; format: functional
[6] = tested on: 3T3-L1; experiment: Effect on GLUT 1 glucose transporter expression in 3T3-L1 adipocytes at dose of 0.3 uM; format: functional, Mus musculus
[7] = tested on: 3T3-L1; experiment: Effect on GLUT 1 glucose transporter expression in 3T3-L1 adipocytes at dose of 30 uM; format: functional, Mus musculus

SMILES | Glucose normalisation [1] | Effect [4] | Effect [6] | Effect [7] | other results
CCCCCc1ccc(C(=O)N[C@H]2N=C(c3ccccc3)c3ccccc3N(C)C2=O)cc1 | 50% |  |  |  | 
CNC(=O)N(O)Cc1ccc(OCCc2nc(-c3ccccc3)oc2C)cc1 | 25% |  |  |  | 
Cc1oc(-c2ccccc2)nc1CCOc1ccc(Cn2oc(=O)[nH]c2=O)cc1 |  | 130.6% | 109.7% | 142.3% | Glucose normalisation [2]: 97%; Glucose normalisation [3]: 45%; Glucose normalisation [5]: 100%
Cc1oc(-c2ccccc2)nc1CCOc1ccc(CN(OC(=O)Oc2ccccc2)C(N)=O)cc1 | 25% |  |  |  | 
COC(=O)ON(Cc1ccc(OCCc2nc(-c3ccccc3)oc2C)cc1)C(N)=O | 80% | 113% | 90.5% | 164.5% | Glucose normalisation [2]: 100%; Glucose normalisation [3]: 28%; Glucose normalisation [5]: 77%
Cc1oc(-c2ccccc2)nc1CCOc1ccc(CN(O)C(N)=O)cc1 |  | 109.8% | 97% | 140.6% | 
CNC(=O)N(Cc1ccc(OCCc2nc(-c3ccccc3)oc2C)cc1)OC(=O)OC | 25% |  |  |  | 
CCOC(=O)ON(Cc1ccc(OCCc2nc(-c3ccccc3)oc2C)cc1)C(N)=O | 52% |  |  |  | 
CC1(COc2ccc(CC3SC(=O)NC3=O)cc2)CCCCC1 (configuration not stated) [CIGLITAZONE] |  |  |  | 151.3% | 
